The term DC50 denotes the concentration at which degradation of the target reaches its halfway point.

This assay addresses T1, ERα protein (HiBiT-tagged) in ESR1_HiBiT KI MCF7 cells (Homo sapiens, UniProt P03372).
T1 sequence (P03372 1-595): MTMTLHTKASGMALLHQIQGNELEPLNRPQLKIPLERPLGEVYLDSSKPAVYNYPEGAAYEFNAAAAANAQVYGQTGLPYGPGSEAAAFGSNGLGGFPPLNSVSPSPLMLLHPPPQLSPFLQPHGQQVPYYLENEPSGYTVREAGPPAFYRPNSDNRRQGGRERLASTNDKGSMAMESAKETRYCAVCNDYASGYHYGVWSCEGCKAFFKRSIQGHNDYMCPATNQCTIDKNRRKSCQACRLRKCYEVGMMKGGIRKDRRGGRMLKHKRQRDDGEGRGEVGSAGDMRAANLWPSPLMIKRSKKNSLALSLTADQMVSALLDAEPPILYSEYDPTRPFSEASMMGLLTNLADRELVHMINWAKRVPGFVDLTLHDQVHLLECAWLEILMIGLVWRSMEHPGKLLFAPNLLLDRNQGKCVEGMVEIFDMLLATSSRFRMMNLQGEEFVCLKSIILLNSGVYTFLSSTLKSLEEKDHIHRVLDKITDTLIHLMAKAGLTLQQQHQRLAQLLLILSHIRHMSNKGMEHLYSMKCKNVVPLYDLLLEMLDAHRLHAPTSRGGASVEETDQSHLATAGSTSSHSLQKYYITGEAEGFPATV
The assay is described as follows: Nano Glo HiBiT Lytic Degradation Assay. Format: cell-based. Conditions: 6 hours with compound, 14-point dose response 1:3, bell-shape curve fit, half-maximal effect of first Hill model, read-out: MCF7 ESR1 HiBiT - (DC50). A digest of the protocol:
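HiBiT-tagged endogenous ERα remaining in MCF7 knock-in cells was quantified by lytic luminescence after a 6 h treatment. DC50 values derive from a bell-shaped curve, taken at the first Hill component's half-maximal effect.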
For orientation: With HiBiT, luminescence reflects the tagged protein that the partner subunit can reach.
As to `O=C1CCC(N2Cc3cc(N4CCN(CC5CCN(c6c(F)cc([C@@H]7c8ccc(O)cc8CC[C@@H]7C7CCCCC7)cc6F)CC5)CC4)ccc3C2=O)C(=O)N1` (stereo in doubt) [Compound I-159, (R)-3-(5-(4-((1-(4-((1R,2R)-2-cyclohexyl-6-hydroxy-1,2,3,4-tetrahydronaphthalen-1-yl)-2,6-difluorophenyl)piperidin-4-yl)methyl)piperazin-1-yl)-1-oxoisoindolin-2-yl)piperidine-2,6-dione], the DC50 came to 10 nM. With `O=C1CCN(c2ccc(N3CCC4(CCN(CC5CCN(c6ccc([C@@H]7c8ccc(O)cc8C(F)(F)C[C@@H]7c7ccccc7)cc6)CC5)C4)C3)cc2)C(=O)N1` (single isomer, unassigned) [Compound I-289], the DC50 is at least 10000 nM. Next, `C[C@]1(c2ccccc2)OCc2cc(O)ccc2[C@@H]1c1ccc(N2CCC(CN3CCN(c4ccc5c(c4)CN([C@H]4CCC(=O)NC4=O)C5=O)CC3)CC2)cc1` (single isomer, unassigned) [Compound I-345, (S)-3-(5-(4-((1-(4-((3*S,4*S)-7-hydroxy-3-methyl-3-phenylisochroman-4-yl)phenyl)piperidin-4-yl)methyl)piperazin-1-yl)-1-oxoisoindolin-2-yl)piperidine-2,6-dione]: 5 nM. In the case of `O=C1CC[C@H](N2Cc3cc(N4CCN(CC5CCN(c6ccc([C@H]7c8ccc(O)cc8CC[C@H]7C78CC9CC(CC(C9)C7)C8)cc6)CC5)CC4)ccc3C2=O)C(=O)N1` [Compound I-241, (S)-3-(5-(4-((1-(4-((1S,2R)-2-((3S,5S,7S)-adamantan-1-yl)-6-hydroxy-1,2,3,4-tetrahydronaphthalen-1-yl)phenyl)piperidin-4-yl)methyl)piperazin-1-yl)-1-oxoisoindolin-2-yl)piperidine-2,6-dione], the half-maximal degradation concentration (DC50) was 370 nM.

`Cc1cc(F)c([C@H]2CCc3cc(O)ccc3[C@H]2c2ccc(N3CCC(CN4CCN(c5ccc6c(c5)CN([C@H]5CCC(=O)NC5=O)C6=O)CC4)CC3)cc2)cc1F` [II-75]: the DC50 is 0.73 nM. As to `O=C1CC[C@H](N2Cc3cc(N4CCN(CC5CCN(c6ccc([C@@H]7c8ccc(O)cc8CO[C@@H]7c7ccc8c(c7)CCC8)cc6)CC5)CC4)ccc3C2=O)C(=O)N1` [Compound I-365, (S)-3-(5-(4-((1-(4-((3S,4R)-3-(2,3-dihydro-1H-inden-5-yl)-7-hydroxyisochroman-4-yl)phenyl)piperidin-4-yl)methyl)piperazin-1-yl)-1-oxoisoindolin-2-yl)piperidine-2,6-dione], the DC50 came to 0.24 nM.

With `Cn1nc(C2CCC(=O)NC2=O)c2ccc(N3CCN(CC4CCN(c5ccc([C@@H]6c7ccc(O)cc7CO[C@@H]6c6ccccc6)cc5)CC4)CC3)cc21` (stereo partly drawn) [Compound I-393, 3-[6-[4-[[1-[4-[(3S,4R)-7-hydroxy-3-phenyl-isochroman-4-yl]phenyl]-4-piperidyl]methyl]piperazin-1-yl]-1-methyl-indazol-3-yl]piperidine-2,6-dione], the DC50 was found to be 0.36 nM.

As to `C[C@@]1(C2CCCCC2)OCc2cc(O)ccc2[C@H]1c1ccc(N2CCC(CN3CCN(c4ccc5c(c4)CN([C@H]4CCC(=O)NC4=O)C5=O)CC3)CC2)cc1` [Compound I-258, (S)-3-(5-(4-((1-(4-((3S,4R)-3-cyclohexyl-7-hydroxy-3-methylisochroman-4-yl)phenyl)piperidin-4-yl)methyl)piperazin-1-yl)-1-oxoisoindolin-2-yl)piperidine-2,6-dione], the DC50 is 1 nM.

Regarding `O=C1CC[C@H](N2Cc3cc(N4CCN(CC5CCN(c6ccc([C@@H]7c8ccc(O)cc8C(F)(F)C[C@@H]7c7ccccc7)cn6)CC5)CC4)ccc3C2=O)C(=O)N1` [Compound I-202, (3S)-3-[5-[4-[[1-[5-[(1S,2S)-4,4-difluoro-6-hydroxy-2-phenyl-tetralin-1-yl]-2-pyridyl]-4-piperidyl]methyl]piperazin-1-yl]-1-oxo-isoindolin-2-yl]piperidine-2,6-dione], the DC50 turned out to be 0.3 nM.

With `O=C1CCC(c2ccc(N3CCC4(CCN(CC5CCN(c6ccc([C@@H]7c8ccc(O)cc8CC[C@@H]7c7ccccc7)cc6)CC5)C4)CC3)cc2)C(=O)N1` (single isomer, unassigned) [Compound I-421], the DC50 stood at 0.77 nM. Take `CC(C1CCN(c2ccc([C@@H]3c4ccc(O)cc4CC[C@@H]3c3ccccc3)cc2)CC1)N1CCN(c2ccc3c(c2)CN([C@H]2CCC(=O)NC2=O)C3=O)CC1` (single isomer, unassigned) [II-44]: the DC50 was 2 nM. On to `O=C1CC[C@H](N2Cc3cc(N4CCN(CC5CCN(c6ccc([C@@H]7c8ccc(O)c(Cl)c8CC[C@@H]7c7ccccc7)cc6Cl)CC5)CC4)ccc3C2=O)C(=O)N1` [II-64], for which the half-maximal degradation concentration (DC50) was determined as 16 nM. Take `Cc1ccc([C@@H]2OCc3cc(O)ccc3[C@@H]2c2ccc(N3CCC(CN4CCN(c5ccc6c(c5)CN([C@H]5CCC(=O)NC5=O)C6=O)CC4)CC3)cc2)cc1F` (single isomer, unassigned) [Compound I-356]: the 50% degradation concentration (DC50) was 54 nM. As to `O=C1CC[C@H](N2Cc3cc(N4CCN(CC5CCN(c6ccc([C@@H]7c8ccc(O)cc8CO[C@@H]7C7CCCCC7)cc6)CC5)CC4)ccc3C2=O)C(=O)N1` [Compound I-34, (S)-3-(5-(4-((1-(4-((3R,4R)-3-cyclohexyl-7-hydroxyisochroman-4-yl)phenyl)piperidin-4-yl)methyl)piperazin-1-yl)-1-oxoisoindolin-2-yl)piperidine-2,6-dione], the DC50 was 0.49 nM. `C[C@H](C1CCN(c2ccc([C@@H]3c4ccc(O)cc4CC[C@@H]3c3ccccc3)cc2)CC1)N1CCN(c2ccc3c(c2)CN(C2CCC(=O)NC2=O)C3=O)CC1` (single isomer, unassigned) [II-69]: the DC50 worked out at 0.51 nM. With `O=C1CC[C@H](N2Cc3cc(N4CCN(CC5CCN(c6ccc([C@@H]7c8ccc(O)cc8C(F)(F)C[C@@H]7c7ccc(F)c(F)c7)cc6)CC5)CC4)ccc3C2=O)C(=O)N1` [Compound I-314, (S)-3-(5-(4-((1-(4-((1R,2S)-2-(3,4-difluorophenyl)-4,4-difluoro-6-hydroxy-1,2,3,4-tetrahydronaphthalen-1-yl)phenyl)piperidin-4-yl)methyl)piperazin-1-yl)-1-oxoisoindolin-2-yl)piperidine-2,6-dione], the DC50 came out at 0.33 nM.

Take `Cn1c(=O)n([C@H]2CCC(=O)NC2=O)c2ccc(N3CCN(CC4CCN(c5ccc([C@@H]6c7ccc(O)cc7CC[C@@H]6c6ccccc6)cc5)CC4)CC3)cc21` (single isomer, unassigned) [Compound I-275]: the DC50 is 0.25 nM. On to `O=C1CC[C@H](N2Cc3cc(N4CCN(CC5CCN(c6ccc([C@@H]7c8ccc(O)cc8C(F)(F)C[C@@H]7c7ccccc7)cc6)CC5)CC4)ccc3C2=O)C(=O)N1` [Compound I-51, (S)-3-(5-(4-((1-(4-((1R,2S)-4,4-difluoro-6-hydroxy-2-phenyl-1,2,3,4-tetrahydronaphthalen-1-yl)phenyl)piperidin-4-yl)methyl)piperazin-1-yl)-1-oxoisoindolin-2-yl)piperidine-2,6-dione], for which the DC50 is 0.45 nM. Consider `O=C1CC[C@@H](N2Cc3cc(N4CCN(CC5CCN(c6ccc([C@@H]7c8ccc(O)cc8C(F)(F)C[C@@H]7c7ccccc7)cc6)CC5)CC4)ccc3C2=O)C(=O)N1` [Compound I-306, (R)-3-(5-(4-((1-(4-((1R,2S)-4,4-difluoro-6-hydroxy-2-phenyl-1,2,3,4-tetrahydronaphthalen-1-yl)phenyl)piperidin-4-yl)methyl)piperazin-1-yl)-1-oxoisoindolin-2-yl)piperidine-2,6-dione], for which the DC50 turned out to be 0.6 nM.

The values above are taken from patent US20250388565A1, “ESTROGEN RECEPTOR ALPHA DEGRADERS AND METHODS OF USE THEREOF” (Relay Therapeutics, Inc., priority 2022, published 2025).
